Assay results from PubChem BioAssay AID1259407 (Chemical Carcinogenesis Research Information System (CCRIS), 2018).
Active and inactive are the calls of the source. The rule behind the calls is not given here.

System: CCRIS mutagenicity, Ames/micronucleus/aberration tests
Assay: CCRIS mutagenicity studies

COc1cc2c(c(OC)c1OC)-c1ccc(OC)c(=O)cc1[C@@H](NC(C)=O)CC2
mutagenic call (End Point: IN VITRO CHROMOSOMAL ABERRATIONS, Test System: CHINESE HAMSTER OVARY CELLS, Metabolic Activation: NONE): active; positive (ploidy changes)
mutagenic call (End Point: IN VITRO CHROMOSOMAL ABERRATIONS, Test System: CHINESE HAMSTER OVARY CELLS, Metabolic Activation: RAT, LIVER, S-9, AROCLOR 1254): inactive; negative
mutagenic call (End Point: IN VITRO MICRONUCLEUS, Test System: CHL/IU CELLS, Metabolic Activation: NONE): active; positive
mutagenic call (End Point: IN VIVO MICRONUCLEUS, Test System: BLOOD ERYTHROCYTES, Species: MOUSE, Strain/Sex: CD-1/MALE, Route: ORAL): active; positive
mutagenic call (End Point: In vitro micronucleus, Test System: Mouse lymphoma L5178Y cells, Metabolic Activation: None): active; positive
mutagenic call (End Point: In vivo micronucleus, Test System: Micronucleated, binucleated and multinucleated hepatocytes, Species: Mouse, Strain/Sex: ddY/Male, Route: Intravenous): active; positive for binucleated and multinucleated cells when agent administered after
mutagenic call (Test System: AMES SALMONELLA TYPHIMURIUM, Strain/Indicator: TA98, Metabolic Activation: HAMSTER, LIVER, S-9, AROCLOR 1254, Method: STANDARD PLATE): inactive; negative
mutagenic call (Test System: AMES SALMONELLA TYPHIMURIUM, Strain/Indicator: TA98, Metabolic Activation: NONE, Method: STANDARD PLATE): inactive; negative
mutagenic call (Test System: AMES SALMONELLA TYPHIMURIUM, Strain/Indicator: TA98, Metabolic Activation: RAT, LIVER, S-9, AROCLOR 1254, Method: STANDARD PLATE): inactive; negative
mutagenic call (Test System: AMES SALMONELLA TYPHIMURIUM, Strain/Indicator: TA100, Metabolic Activation: HAMSTER, LIVER, S-9, AROCLOR 1254, Method: STANDARD PLATE): inactive; negative
mutagenic call (Test System: AMES SALMONELLA TYPHIMURIUM, Strain/Indicator: TA100, Metabolic Activation: NONE, Method: STANDARD PLATE): inactive; negative
mutagenic call (Test System: AMES SALMONELLA TYPHIMURIUM, Strain/Indicator: TA100, Metabolic Activation: RAT, LIVER, S-9, AROCLOR 1254, Method: STANDARD PLATE): inactive; negative
mutagenic call (Test System: AMES SALMONELLA TYPHIMURIUM, Strain/Indicator: TA1535, Metabolic Activation: HAMSTER, LIVER, S-9, AROCLOR 1254, Method: STANDARD PLATE): inactive; negative
mutagenic call (Test System: AMES SALMONELLA TYPHIMURIUM, Strain/Indicator: TA1535, Metabolic Activation: NONE, Method: STANDARD PLATE): inactive; negative
mutagenic call (Test System: AMES SALMONELLA TYPHIMURIUM, Strain/Indicator: TA1535, Metabolic Activation: RAT, LIVER, S-9, AROCLOR 1254, Method: STANDARD PLATE): inactive; negative
mutagenic call (Test System: AMES SALMONELLA TYPHIMURIUM, Strain/Indicator: TA1537, Metabolic Activation: HAMSTER, LIVER, S-9, AROCLOR 1254, Method: STANDARD PLATE): inactive; negative
mutagenic call (Test System: AMES SALMONELLA TYPHIMURIUM, Strain/Indicator: TA1537, Metabolic Activation: NONE, Method: STANDARD PLATE): inactive; negative
mutagenic call (Test System: AMES SALMONELLA TYPHIMURIUM, Strain/Indicator: TA1537, Metabolic Activation: RAT, LIVER, S-9, AROCLOR 1254, Method: STANDARD PLATE): inactive; negative
mutagenic call (Test System: AMES SALMONELLA TYPHIMURIUM, Strain/Indicator: TA1538, Metabolic Activation: HAMSTER, LIVER, S-9, AROCLOR 1254, Method: STANDARD PLATE): inactive; negative
mutagenic call (Test System: AMES SALMONELLA TYPHIMURIUM, Strain/Indicator: TA1538, Metabolic Activation: NONE, Method: STANDARD PLATE): inactive; negative
mutagenic call (Test System: AMES SALMONELLA TYPHIMURIUM, Strain/Indicator: TA1538, Metabolic Activation: RAT, LIVER, S-9, AROCLOR 1254, Method: STANDARD PLATE): inactive; negative
mutagenic call (Test System: MOUSE LYMPHOMA, Strain/Indicator: L5178Y (TK+/TK-), Metabolic Activation: NONE): active; positive
mutagenic call (Test System: MOUSE LYMPHOMA, Strain/Indicator: L5178Y (TK+/TK-), Metabolic Activation: NONE, Method: SUSPENSION/PLATE): inactive; negative. reevaluation of results: negative
mutagenic call (Test System: MOUSE LYMPHOMA, Strain/Indicator: L5178Y (TK+/TK-), Metabolic Activation: RAT, LIVER, S-9, AROCLOR 1254, Method: SUSPENSION/PLATE): inactive; negative. reevaluation of results: negative
mutagenic call (Test System: MOUSE LYMPHOMA, Strain/Indicator: L5178Y(TK+/TK-), Metabolic Activation: NONE, Method: MICROWELL): active; positive
mutagenic call (Test System: Mouse lymphoma, Strain/Indicator: L5178Y (tk+/tk-)/Trifluorothymidine, Metabolic Activation: None, Method: Microtiter): inactive; negative

CC(=O)OC(C)(C)C
mutagenic call (Test System: AMES SALMONELLA TYPHIMURIUM, Strain/Indicator: TA98, Metabolic Activation: NONE, Method: PREINCUBATION): inactive; negative
mutagenic call (Test System: AMES SALMONELLA TYPHIMURIUM, Strain/Indicator: TA98, Metabolic Activation: RAT, LIVER, S-9, AROCLOR 1254, Method: PREINCUBATION): inactive; negative
mutagenic call (Test System: AMES SALMONELLA TYPHIMURIUM, Strain/Indicator: TA100, Metabolic Activation: NONE, Method: PREINCUBATION): inactive; negative
mutagenic call (Test System: AMES SALMONELLA TYPHIMURIUM, Strain/Indicator: TA100, Metabolic Activation: RAT, LIVER, S-9, AROCLOR 1254, Method: PREINCUBATION): inactive; negative
mutagenic call (Test System: AMES SALMONELLA TYPHIMURIUM, Strain/Indicator: TA102, Metabolic Activation: NONE, Method: PREINCUBATION): inactive; negative
mutagenic call (Test System: AMES SALMONELLA TYPHIMURIUM, Strain/Indicator: TA102, Metabolic Activation: RAT, LIVER, S-9, AROCLOR 1254, Method: PREINCUBATION): inactive; negative
mutagenic call (Test System: AMES SALMONELLA TYPHIMURIUM, Strain/Indicator: TA1535, Metabolic Activation: NONE, Method: PREINCUBATION): inactive; negative
mutagenic call (Test System: AMES SALMONELLA TYPHIMURIUM, Strain/Indicator: TA1535, Metabolic Activation: RAT, LIVER, S-9, AROCLOR 1254, Method: PREINCUBATION): inactive; negative
mutagenic call (Test System: AMES SALMONELLA TYPHIMURIUM, Strain/Indicator: TA1537, Metabolic Activation: NONE, Method: PREINCUBATION): inactive; negative
mutagenic call (Test System: AMES SALMONELLA TYPHIMURIUM, Strain/Indicator: TA1537, Metabolic Activation: RAT, LIVER, S-9, AROCLOR 1254, Method: PREINCUBATION): inactive; negative
mutagenic call (Test System: E. COLI, Strain/Indicator: WP2UVRA/PKM, Metabolic Activation: NONE, Method: PREINCUBATION): inactive; negative
mutagenic call (Test System: E. COLI, Strain/Indicator: WP2UVRA/PKM, Metabolic Activation: RAT, LIVER, S-9, AROCLOR 1254, Method: PREINCUBATION): inactive; negative

COc1cc(O)c2c(=O)c3c(O)ccc(O)c3oc2c1
mutagenic call (Test System: AMES SALMONELLA TYPHIMURIUM, Strain/Indicator: TA97, Metabolic Activation: NONE, Method: PREINCUBATION): active; positive
mutagenic call (Test System: AMES SALMONELLA TYPHIMURIUM, Strain/Indicator: TA97, Metabolic Activation: RAT, LIVER, S-9, PHENOBARBITAL AND 5,6-BENZOFLAVONE, Method: PREINCUBATION): active; positive
mutagenic call (Test System: AMES SALMONELLA TYPHIMURIUM, Strain/Indicator: TA98, Metabolic Activation: RAT, LIVER, S-9, PHENOBARBITAL AND 5,6-BENZOFLAVONE, Method: PREINCUBATION): inactive; negative
mutagenic call (Test System: AMES SALMONELLA TYPHIMURIUM, Strain/Indicator: TA100, Metabolic Activation: RAT, LIVER, S-9, PHENOBARBITAL AND 5,6-BENZOFLAVONE, Method: PREINCUBATION): inactive; negative
mutagenic call (Test System: AMES SALMONELLA TYPHIMURIUM, Strain/Indicator: TA2637, Metabolic Activation: RAT, LIVER, S-9, PHENOBARBITAL AND 5,6-BENZOFLAVONE, Method: PREINCUBATION): active; positive

COc1ccc2c(c1)-c1nccc3cc(OC)c(OC)c(c13)C2=O
mutagenic call (Test System: AMES SALMONELLA TYPHIMURIUM, Strain/Indicator: TA98, Metabolic Activation: RAT, LIVER, S-9, PHENOBARBITAL AND BETA-NAPHTHOFLAVONE, Method: PREINCUBATION): active; positive

CC(=O)N(C(C)=O)c1ccc(C)c(N=Nc2ccccc2C)c1
mutagenic call (Test System: AMES SALMONELLA TYPHIMURIUM, Strain/Indicator: TA98, Metabolic Activation: NONE, Method: SUSPENSION/PLATE): inactive; negative
mutagenic call (Test System: AMES SALMONELLA TYPHIMURIUM, Strain/Indicator: TA98, Metabolic Activation: RAT, LIVER, S-9, PHENOBARBITAL AND 5,6-BENZOFLAVONE, Method: SUSPENSION/PLATE): inactive; negative
mutagenic call (Test System: AMES SALMONELLA TYPHIMURIUM, Strain/Indicator: TA100, Metabolic Activation: NONE, Method: SUSPENSION/PLATE): inactive; negative
mutagenic call (Test System: AMES SALMONELLA TYPHIMURIUM, Strain/Indicator: TA100, Metabolic Activation: RAT, LIVER, S-9, PHENOBARBITAL AND 5,6-BENZOFLAVONE, Method: SUSPENSION/PLATE): inactive; negative
